Like-named read-outs stand apart in the source and are kept apart here.
How the values were obtained:
Assay in all cases: Test A postemergence
Format in all cases: in vivo
[1] = test system: wheat (Triticum aestivum); settings: Triticum aestivum, post-emergence, 240 h; for plant injury at 125 g/ha: 125 g ai/ha
How it was run: (§1)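 Visual injury scores from 0, no effect, to 100, complete control, were assigned versus untreated controls roughly 10 d after treatment in the greenhouse. Test chemicals, formulated with surfactant in a non-phytotoxic solvent, were applied to planted seeds as a preemergence soil spray or postemergence to one- to two-leaf plants 2 to 10 cm tall, in loam–sand soil.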

[2] = test system: barnyardgrass (Echinochloa crus-galli); settings: Echinochloa crus-galli, post-emergence, 240 h; for pest or weed control at 125 g/ha: 125 g ai/ha; for pest or weed control at 500 g/ha: 500 g ai/ha, 0 to 100 scale, 0 is no effect, 100 is complete control
How it was run: as §1

[3] = test system: Galium (catchweed bedstraw, Galium aparine); settings: Galium, post-emergence, 240 h; for pest or weed control at 125 g/ha: 125 g ai/ha; for pest or weed control at 500 g/ha: 500 g ai/ha, 0 to 100 scale, 0 is no effect, 100 is complete control
How it was run: as §1

Kochia (Kochia scoparia) = settings: Bassia scoparia, post-emergence, 240 h; for pest or weed control at 125 g/ha: 125 g ai/ha; for pest or weed control at 500 g/ha: 500 g ai/ha, 0 to 100 scale, 0 is no effect, 100 is complete control
How it was run: as §1

[4] = test system: giant foxtail (Setaria faberii); settings: Setaria faberi, post-emergence, 240 h; for pest or weed control at 125 g/ha: 125 g ai/ha; for pest or weed control at 500 g/ha: 500 g ai/ha, 0 to 100 scale, 0 is no effect, 100 is complete control
How it was run: as §1

[5] = postemergence, read-out: Barnyardgrass plant response rating
[6] = postemergence, read-out: Galium plant response rating
[7] = postemergence, read-out: Kochia plant response rating
[8] = postemergence, read-out: Foxtail, Giant plant response rating
[9] = postemergence, visual injury rating after approximately 10 d, read-out: Wheat plant response rating (0 to 100 scale, 0 no effect, 100 complete control)
[10] = postemergence, visual injury rating after approximately 10 d, read-out: Barnyardgrass plant response rating (0 to 100 scale, 0 no effect, 100 complete control)
[11] = postemergence, visual injury rating after approximately 10 d, read-out: Galium plant response rating (0 to 100 scale, 0 no effect, 100 complete control)
[12] = postemergence, visual injury rating after approximately 10 d, read-out: Kochia plant response rating (0 to 100 scale, 0 no effect, 100 complete control)
[13] = postemergence, visual injury rating after approximately 10 d, read-out: Foxtail, Giant plant response rating (0 to 100 scale, 0 no effect, 100 complete control)

## CN1C[C@H](c2cc(C(F)F)cs2)[C@@H](C(=O)Nc2cccc(F)c2F)C1=O [Compound 1121]
[1]; postemergence, visual injury on 0 to 100 scale (0 no effect, 100 complete control), approx. 10 d, read-out: Wheat plant response rating
  plant injury at 125 g/ha: 30%
[1]; 500 g ai/ha, postemergence, 0 to 100 scale, 0 is no effect, 100 is complete control, read-out: Wheat plant response rating
  plant injury at 500 g/ha: 60%
[2]; postemergence, visual injury on 0 to 100 scale (0 no effect, 100 complete control), approx. 10 d, read-out: Barnyardgrass plant response rating
  pest or weed control at 125 g/ha: 90%
[2]; [5]
  pest or weed control at 500 g/ha: 90%
[3]; postemergence, visual injury on 0 to 100 scale (0 no effect, 100 complete control), approx. 10 d, read-out: Galium plant response rating
  pest or weed control at 125 g/ha: 50%
[3]; [6]
  pest or weed control at 500 g/ha: 60%
Kochia (Kochia scoparia); postemergence, visual injury on 0 to 100 scale (0 no effect, 100 complete control), approx. 10 d, read-out: Kochia plant response rating
  pest or weed control at 125 g/ha: 50%
Kochia (Kochia scoparia); [7]
  pest or weed control at 500 g/ha: 70%
[4]; postemergence, visual injury on 0 to 100 scale (0 no effect, 100 complete control), approx. 10 d, read-out: Foxtail, Giant plant response rating
  pest or weed control at 125 g/ha: 90%
[4]; [8]
  pest or weed control at 500 g/ha: 90%

## CN1CC[C@H](c2ccc(F)cc2)[C@@H](C(=O)Nc2ccccc2F)C1=O [Compound 917]
[1]; Postemergence, visual injury after approximately 10 d, 0 to 100 scale where 0 is no effect and 100 is complete control, read-out: Plant response rating, Wheat
  plant injury at 125 g/ha: 0%
[2]; Postemergence, visual injury after approximately 10 d, 0 to 100 scale where 0 is no effect and 100 is complete control, read-out: Plant response rating, Barnyardgrass
  pest or weed control at 125 g/ha: 0%
[3]; Postemergence, visual injury after approximately 10 d, 0 to 100 scale where 0 is no effect and 100 is complete control, read-out: Plant response rating, Galium
  pest or weed control at 125 g/ha: 0%
Kochia (Kochia scoparia); Postemergence, visual injury after approximately 10 d, 0 to 100 scale where 0 is no effect and 100 is complete control, read-out: Plant response rating, Kochia
  pest or weed control at 125 g/ha: 0%
[4]; Postemergence, visual injury after approximately 10 d, 0 to 100 scale where 0 is no effect and 100 is complete control, read-out: Plant response rating, Foxtail, Giant
  pest or weed control at 125 g/ha: 0%

## Cc1c(F)ccc([C@H]2CN(C)C(=O)[C@@H]2C(=O)Nc2ccccc2C(F)(F)F)c1F [Compound 841]
[1]; [9]
  plant injury at 125 g/ha: 0%
[2]; [10]
  pest or weed control at 125 g/ha: 80%
[3]; [11]
  pest or weed control at 125 g/ha: 40%
Kochia (Kochia scoparia); [12]
  pest or weed control at 125 g/ha: 30%
[4]; [13]
  pest or weed control at 125 g/ha: 90%

## COc1c(F)ccc([C@H]2CNC(=O)[C@@H]2C(=O)Nc2ccccc2F)c1Cl [Compound 881]
[1]; [9]
  plant injury at 125 g/ha: 0%
[2]; [10]
  pest or weed control at 125 g/ha: 90%
[3]; [11]
  pest or weed control at 125 g/ha: 0%
Kochia (Kochia scoparia); [12]
  pest or weed control at 125 g/ha: 30%
[4]; [13]
  pest or weed control at 125 g/ha: 80%

## COc1cc([C@H]2CN(C)C(=O)[C@@H]2C(=O)Nc2ccccc2SC)cc(C(F)(F)F)c1 [Compound 857]
[1]; [9]
  plant injury at 125 g/ha: 30%
[2]; [10]
  pest or weed control at 125 g/ha: 70%
[3]; [11]
  pest or weed control at 125 g/ha: 20%
Kochia (Kochia scoparia); [12]
  pest or weed control at 125 g/ha: 20%
[4]; [13]
  pest or weed control at 125 g/ha: 70%

## Cc1c(F)cccc1NC(=O)[C@H]1C(=O)N(C)C[C@@H]1c1ccc(F)cc1 [Compound 1235]
[1]; postemergence, visual injury vs untreated controls after approx. 10 d, 0 = no effect, 100 = complete control, read-out: Wheat plant response rating (0 to 100 scale)
  plant injury at 125 g/ha: 40%
[2]; postemergence, visual injury vs untreated controls after approx. 10 d, 0 = no effect, 100 = complete control, read-out: Barnyardgrass plant response rating (0 to 100 scale)
  pest or weed control at 125 g/ha: 90%
[2]; [5]
  pest or weed control at 500 g/ha: 100%
[3]; postemergence, visual injury vs untreated controls after approx. 10 d, 0 = no effect, 100 = complete control, read-out: Galium plant response rating (0 to 100 scale)
  pest or weed control at 125 g/ha: 50%
[3]; [6]
  pest or weed control at 500 g/ha: 70%
Kochia (Kochia scoparia); postemergence, visual injury vs untreated controls after approx. 10 d, 0 = no effect, 100 = complete control, read-out: Kochia plant response rating (0 to 100 scale)
  pest or weed control at 125 g/ha: 30%
Kochia (Kochia scoparia); [7]
  pest or weed control at 500 g/ha: 50%
[4]; postemergence, visual injury vs untreated controls after approx. 10 d, 0 = no effect, 100 = complete control, read-out: Foxtail, Giant plant response rating (0 to 100 scale)
  pest or weed control at 125 g/ha: 80%
[4]; [8]
  pest or weed control at 500 g/ha: 90%

Source: patent US12077503B2, “Substituted cyclic amides and their use as herbicides” (FMC CORPORATION, priority 2015, dated 2024)
